Results: patent US20230364061A1, “THIAZOLIDINE DERIVATIVES FOR INHIBITING CAV3.2-USP5 INTERACTIONS” (Zymedyne Therapeutics Inc., priority 2020, published 2023)

Tests used:
[1] = tested on: recombinant USP5 (long or short splice variant); experiment: USP5 deubiquitinase (DUB) activity assay; format: biochemical; details: recombinant long or short form of USP5, fluorescence over time (FIG. 8)
Procedure: FIG. 8 examines the effect of exemplary compound II-1 on in vitro deubiqutinase activity of USP5. Here recombinant USP5 (either the long or the short splice variant) is incubated with a ubiquitinated substrate, and deubiquitination is measured via a fluorescence readout as a function of time.
To rule out the possibility that exemplary compound II-1 might mediate its analgesic effects by altering the deubiquitinase (DUB) activity of USPS rather than by disrupting the interactions with the channel, a DUB assays was conducted (FIG. 8). Here, a ubiquitinated substrate (ubiquitin-rhodamine110-glycine) is incubated with recombinant long or short forms of USP5, and deubiquitination of the substrate as a function of time is measured via a fluorescence readout. Both the long form and the short form of USP5 lead to deubiquitination of the substrate, as evident from an increasing and plateauing fluorescence signal (528 nm emission in response to 485 nm excitation). The commercially available DUB inhibitor Degrasyn which is used as a positive control prevents this.

[2] = tested on: diabetic, visceral, inflammatory and neuropathic pain; details: hits of an initial CDRD active compound library screen; cited from earlier work
[3] = target: T1, USP5-Cav3.2 interaction (recombinant USP5 binding to immobilized Cav3.2 domain III-IV linker peptides) (Homo sapiens, UniProt P45974); experiment: Cav3.2-USP5 ELISA assay; details: for Percent Inhibition: Cav3.2-USP5 ELISA of Example 1, concentration not given
T1 sequence (P45974 1-858): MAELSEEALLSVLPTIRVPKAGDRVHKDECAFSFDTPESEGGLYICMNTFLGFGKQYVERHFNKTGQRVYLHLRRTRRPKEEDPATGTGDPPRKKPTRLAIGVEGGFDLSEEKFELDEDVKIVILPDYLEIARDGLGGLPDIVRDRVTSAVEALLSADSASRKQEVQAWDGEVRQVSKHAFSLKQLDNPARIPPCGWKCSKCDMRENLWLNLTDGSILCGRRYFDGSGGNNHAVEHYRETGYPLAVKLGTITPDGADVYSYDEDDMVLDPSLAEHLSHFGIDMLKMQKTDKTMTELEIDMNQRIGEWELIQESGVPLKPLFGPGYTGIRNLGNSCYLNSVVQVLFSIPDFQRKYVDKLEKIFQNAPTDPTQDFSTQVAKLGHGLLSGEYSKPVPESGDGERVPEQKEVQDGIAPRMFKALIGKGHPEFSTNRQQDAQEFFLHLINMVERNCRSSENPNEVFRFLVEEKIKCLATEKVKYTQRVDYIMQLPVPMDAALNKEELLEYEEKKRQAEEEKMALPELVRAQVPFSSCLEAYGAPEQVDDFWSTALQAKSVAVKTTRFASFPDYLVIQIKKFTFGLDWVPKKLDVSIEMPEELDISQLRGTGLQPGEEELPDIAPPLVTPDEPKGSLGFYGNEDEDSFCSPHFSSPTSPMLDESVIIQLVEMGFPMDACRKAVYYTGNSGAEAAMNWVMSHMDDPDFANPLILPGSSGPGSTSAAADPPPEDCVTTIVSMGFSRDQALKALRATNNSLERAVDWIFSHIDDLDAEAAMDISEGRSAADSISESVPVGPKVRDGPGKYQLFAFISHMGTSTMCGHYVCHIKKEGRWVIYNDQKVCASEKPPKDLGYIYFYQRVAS
From the text: FIG. 3 is a schematic of the high throughput ELISA assay used to screen the exemplary compound of the applications. Here the Cav3.2 III-1V linker is immobilized and then recombinant USP5 is allowed to bind. Binding is detected via antibodies conjugated to horseradish peroxidase for a fluorescent readout. Compounds are applied and a reduction in fluorescence is indicative of a disruption of USP5-Cav3.2 interactions.
A high throughput ELISA assay was used to screen the exemplary compounds of the applications (FIG. 3). The ELISA is based on the binding of recombinant USP5 to immobilized Cav3.2 domain […] linker peptides. Binding interactions were detected using USP5 antibodies, and a secondary antibody conjugated to horseradish peroxidase, leading to a fluorescence readout. The ELISA was converted into a high through-put format 384 well plate. Multiple compound libraries were screened for small organic molecules that disrupt the USP5—Cav3.2 interaction. A number of hits were identified at the standard screening concentration, and the dose dependence of hits was investigated. Select actives were subjected to a secondary biochemical assays based on co-immunoprecipitations of USP5 and Cav3.2 from mouse neuronal tissue.
In the ELISA assay from Example 1, compound II-1 was added at varying concentrations, and the ability of II-1 to inhibit the USP5-Cav3.2 interaction examined. The percentage of inhibition as a function of drug concentration could be fitted using the Hill equation.

[4] = target: T2, association of USP5 and Cav3.2 channels (Mus musculus, UniProt P56399); experiment: Co-immunoprecipitation of USP5 with Cav3.2 from brain lysate; format: binding; details: 1 uM compound, whole brain lysates, n=5 (FIG. 4)
T2 construct: using whole brain lysates and probed for USP5; from tissue; host or cells: mouse whole brain homogenate/lysate
T2 sequence (P56399 1-858): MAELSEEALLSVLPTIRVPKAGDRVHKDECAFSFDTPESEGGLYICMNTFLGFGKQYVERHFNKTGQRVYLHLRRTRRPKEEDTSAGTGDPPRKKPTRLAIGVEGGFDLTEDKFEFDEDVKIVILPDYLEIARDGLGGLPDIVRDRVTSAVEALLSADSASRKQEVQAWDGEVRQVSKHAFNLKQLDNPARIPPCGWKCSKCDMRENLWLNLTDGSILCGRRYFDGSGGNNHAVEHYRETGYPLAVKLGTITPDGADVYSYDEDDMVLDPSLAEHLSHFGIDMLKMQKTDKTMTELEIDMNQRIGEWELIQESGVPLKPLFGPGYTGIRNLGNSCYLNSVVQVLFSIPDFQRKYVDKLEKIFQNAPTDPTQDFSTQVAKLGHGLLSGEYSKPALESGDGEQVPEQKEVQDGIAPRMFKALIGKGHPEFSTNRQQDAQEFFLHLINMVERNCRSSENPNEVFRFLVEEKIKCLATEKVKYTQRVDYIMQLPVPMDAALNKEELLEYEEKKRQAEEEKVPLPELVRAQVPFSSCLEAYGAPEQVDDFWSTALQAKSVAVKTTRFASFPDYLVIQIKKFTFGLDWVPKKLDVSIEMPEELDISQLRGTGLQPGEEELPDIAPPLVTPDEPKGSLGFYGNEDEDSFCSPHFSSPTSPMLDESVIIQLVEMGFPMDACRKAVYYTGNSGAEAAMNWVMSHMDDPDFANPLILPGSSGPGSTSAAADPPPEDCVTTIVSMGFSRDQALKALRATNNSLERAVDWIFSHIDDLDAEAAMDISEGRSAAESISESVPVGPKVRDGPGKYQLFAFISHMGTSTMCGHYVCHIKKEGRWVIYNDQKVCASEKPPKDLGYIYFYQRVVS
Procedure: FIG. 4 is a graph showing the results of the of immunoprecipitation assay with Cav3.2 channels and a rabbit 3.2 polyclonal antibody using whole brain lysates and probed for USP5 (n=5). Quantifications were normalized to bound USP5 to Cav3.2 IP/alpha-tubulin. 1 uM of exemplary compounds II-1 and II-2 were used in the incubation. 5 uM of a positive control compound was used in the incubation.
A co-immunoprecipitation assay was implemented as a secondary screen for actives derived from the compound library screen. Moause brain homogenate was prepared, and the tissue containing was incubated with a rabbit Cav3.2 polyclonal antibody to immunoprecipitate Cav3.2 channel complexes. The precipitates were run on a Western blot and probed with an antibody against USP5 (n=5). Band intensities for bound USP5 were quantified and normalized to alpha-tubulin (FIG. 4). 1 μM of exemplary compounds II-1 and II-2 were used in the incubation. 5 μM of a control compound identified in a previous library screen was used as a positive control.

[5] = tested on: CFA induced thermal hypersensitivity; experiment: Complete Freund's Adjuvant (CFA) model of chronic inflammatory pain, thermal hypersensitivity; format: in vivo, mice
Procedure: The latency to paw withdrawal in response to radiate heat to the paw decreases after CFA, and II-1 reverses this hypersensitivity in a dose dependent manner, indicating a strong analgesic effect of II-1. […] CFA injection into the hind paw leads to long lasting (weeks) mechanical and thermal hypersensitivity of the hind paw that is reflective of chronic inflammatory pain states. Thermal hypersensitivity is assessed by applying a radiant heat source to the hind paw of the animal and measuring the time between application of the heat source and the withdrawal of the paw. In CFA treated animals, the withdrawal latencies are dramatically shortened, and reflective of thermal hypersensitivity (i.e. thermal pain responses). […] Two asterisks indicate statistical significance at the 0.01 level, three asterisks indicate statistical significance at the 0.001 level relative to CFA+vehicle. FIG. 7 compares the effects of exemplary compound II-1 on CFA mediated thermal hypersensitivity in wild type mice and in mice lacking Cav3.2 channels (45 minutes after administration of the compound). […] Cav3.2^-/- mice have compensatory mechanisms that lead to increased thermal hypersensitivity in response to CFA even though Cav3.2 channels are absent.

[6] = tested on: formalin induced nocifensive responses; experiment: Formalin-induced pain assay; format: in vivo; details: mice, intrathecal delivery, both phases (FIG. 5)
Procedure: Formalin was injected into the hindpaw of a mouse, and the time that the mouse spent licking and biting its paw was determined. There are two phases of these nocifensive behavioral responses—phase I occurs immediately after formalin injection and reflects an acute response, phase II occurs approximately thirty minutes after formalin injection and reflects inflammatory pain. II-1 inhibited the duration of both phases in a dose dependent manner. […] Formalin injection into the hindpaw mediates nocifensive responses (paw licking, biting). There is an initial phase that reflects an acute responses to formalin injection, followed by a quiescent period and a second phase of nocifensive behaviors that reflects inflammatory pain. The duration of the responses is reflective of the amount of pain. […] The same doses were then used in a chronic inflammatory pain assay (i.e. CFA).

[7] = tested on: CFA induced thermal hypersensitivity in Cav3.2-/- mice; experiment: CFA thermal hypersensitivity in Cav3.2 null mice; format: in vivo; details: 45 minutes after administration (FIG. 7)
Procedure: FIG. 7 compares the effects of exemplary compound II-1 on CFA mediated thermal hypersensitivity in wild type mice and in mice lacking Cav3.2 channels (45 minutes after administration of the compound). […] Cav3.2^−/− mice have compensatory mechanisms that lead to increased thermal hypersensitivity in response to CFA even though Cav3.2 channels are absent.

Compound | Percent Inhibition [3] [%] | also measured
CCC[C@H](NC(=O)/C(C#N)=C/c1cccc(Br)n1)c1ccccc1 [Degrasyn, reference compound] | – | deubiquitination of ubiquitin-rhodamine110-glycine by USP5 (fluorescence readout) [1]: inhibits this fluorescence signal
O=c1c(O)c(-c2ccc(O)c(O)c2)oc2c(O)c(O)cc(O)c12 [gossypetin] | – | protection from pain in mice [2]: protect from diabetic, visceral, inflammatory and neuropathic pain in mice
CC(CO)(CO)NCC1SC(=S)NC1=O (stereo not drawn) [II-2] | 100 | deubiquitination of ubiquitin-rhodamine110-glycine by USP5 (fluorescence readout) [1]: fail to inhibit deubiquitination; USP5 bound to Cav3.2 IP, normalized to alpha-tubulin [4]: disrupt the association of USP5 and Cav3.2 channels in neuronal tissue
CCC(C)C(NCC1SC(=S)NC1=O)C(=O)O (stereo not drawn) [II-5] | 86 | –
Cc1ccc(C(=O)Nc2ccc(S(=O)(=O)O)c3cc(S(=O)(=O)O)cc(S(=O)(=O)O)c23)cc1NC(=O)c1cccc(NC(=O)Nc2cccc(C(=O)Nc3cc(C(=O)Nc4ccc(S(=O)(=O)O)c5cc(S(=O)(=O)O)cc(S(=O)(=O)O)c45)ccc3C)c2)c1 [suramin] | – | protection from pain in mice [2]: protect from diabetic, visceral, inflammatory and neuropathic pain in mice
O=C(O)CN(CC(=O)O)CC1SC(=S)NC1=O (stereo not drawn) [II-7] | 85 | –
CC(C)CCC(CCC(C)C)NCC1SC(=S)NC1=O (stereo not drawn) [II-10] | 28 | –
CC(C)CC(NCC1SC(=S)NC1=O)C(=O)O (stereo not drawn) [II-4] | 100 | –
CC(C)C(NCC1SC(=S)NC1=O)C(=O)O (stereo not drawn) [II-3] | 100 | –
NCCCCC(NCC1SC(=S)NC1=O)C(=O)O (stereo not drawn) [II-6] | 87 | –
O=C1NC(=S)SC1CNC1(CCO)CCCCC1 (stereo not drawn) [II-11] | 75 | –
O=C(O)CCNCC1SC(=S)NC1=O (stereo not drawn) [II-8] | 82 | –
O=C1NC(=S)SC1CNC1CCCCC1 (stereo not drawn) [II-12] | 82 | –
O=C1NC(=S)SC1CNCCCO (stereo not drawn) [II-9] | 6 | –
CC(O)C(NCC1SC(=S)NC1=O)C(=O)O (stereo not drawn) [II-1] | 100 | thermal paw withdrawal latency after CFA ([5]; mice, intrathecal delivery, dose response (FIG. 6)): shortened latencies are reversed in a dose dependent manner; thermal paw withdrawal latency after CFA, wild type mice ([5]; wild type Cav3.2+/+ mice, 45 minutes after administration (FIG. 7)): reversed the CFA-induced reduction in thermal paw withdrawal latencies; dose-response of percent inhibition in the Cav3.2-USP5 ELISA ([3]; varying concentrations, fitted with the Hill equation (FIG. 9)): dose dependence of the effect; deubiquitination of ubiquitin-rhodamine110-glycine by USP5 (fluorescence readout) [1]: does not mediate DUB inhibition; duration of nocifensive responses (paw licking, biting), phase I and phase II [6]: response time is shortened in a dose dependent manner; thermal paw withdrawal latency after CFA, Cav3.2 knockout mice [7]: no longer able to reverse CFA induced thermal hypersensitivity; USP5 bound to Cav3.2 IP, normalized to alpha-tubulin [4]: disrupt the association of USP5 and Cav3.2 channels in neuronal tissue
